Laboratory results published in publication PMC11347632 (Scientific Reports, 2024).

Biological target: RPA70 (replication protein A) (Homo sapiens, UniProt P27694)
Experiment: reconstituted RPA-dependent ATR kinase assay with western blot
Assay type: biochemical

Chain of RPA70 (replication protein A) (P15927 whole entry): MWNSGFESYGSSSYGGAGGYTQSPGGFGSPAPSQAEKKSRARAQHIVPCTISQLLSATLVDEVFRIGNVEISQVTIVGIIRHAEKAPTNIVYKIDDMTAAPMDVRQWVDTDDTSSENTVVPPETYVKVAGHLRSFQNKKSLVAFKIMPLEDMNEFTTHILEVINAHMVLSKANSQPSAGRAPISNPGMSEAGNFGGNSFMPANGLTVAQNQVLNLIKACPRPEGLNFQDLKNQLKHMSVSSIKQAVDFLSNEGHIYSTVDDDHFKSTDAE
Chain of RPA70 (replication protein A) (P35244 2-121, further chain): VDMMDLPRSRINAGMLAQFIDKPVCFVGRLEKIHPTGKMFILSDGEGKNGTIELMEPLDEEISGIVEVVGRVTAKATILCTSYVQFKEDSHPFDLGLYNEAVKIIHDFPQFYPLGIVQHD
Chain of RPA70 (replication protein A) (P27694 whole entry): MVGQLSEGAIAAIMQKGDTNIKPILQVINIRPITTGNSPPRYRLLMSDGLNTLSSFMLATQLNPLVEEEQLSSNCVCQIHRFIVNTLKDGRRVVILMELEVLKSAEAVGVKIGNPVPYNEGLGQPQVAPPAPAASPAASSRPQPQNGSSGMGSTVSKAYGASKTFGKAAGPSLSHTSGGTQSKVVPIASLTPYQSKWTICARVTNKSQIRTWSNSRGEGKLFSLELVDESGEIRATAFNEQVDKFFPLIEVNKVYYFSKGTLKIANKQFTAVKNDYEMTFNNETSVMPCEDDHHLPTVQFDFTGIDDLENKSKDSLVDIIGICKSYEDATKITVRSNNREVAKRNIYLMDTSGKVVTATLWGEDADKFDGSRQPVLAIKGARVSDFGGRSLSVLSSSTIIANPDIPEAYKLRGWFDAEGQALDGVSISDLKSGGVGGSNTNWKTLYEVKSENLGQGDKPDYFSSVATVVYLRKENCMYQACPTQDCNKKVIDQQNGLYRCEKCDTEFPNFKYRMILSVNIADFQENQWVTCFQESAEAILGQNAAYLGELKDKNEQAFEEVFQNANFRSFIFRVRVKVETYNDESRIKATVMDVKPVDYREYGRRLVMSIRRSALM

Compound: O=C1C=Cc2ccccc2/C1=C/Nc1ccccc1O [HAMNO, (1Z)-1-[(2-hydroxyanilino)methylidene]naphthalen-2-one]
- reconstituted RPA-dependent ATR kinase assay with western blot: we titrated increasing amounts of HAMNO and PAME into the fully activated ATR reaction
